“Also recorded” adds a separate entry of the source.
Experiments:
[1] = system: SMN2 protein in fibroblast cells derived from SMA patients; conditions: after 64 hours of treatment; cited from earlier work
[2] = system: Rat C6 glioma cells; test: Inhibition of cancer cell growth and change of morphology; format: cell-based; conditions: Rat C6 glioma cells
Protocol: (§1) Three cancer cell lines, Rat C6 giloma cells, Human breast cancer MCF-7 cells, and Human lung cancer A549 cells, were cultured in Dulbecco's modified Eagle's medium (DMEM; Gibco) containing 10% fetal bovine serum (FBS) and 1% penicillin/streptomycin. All three cell lines were maintained at 37° C. in a humidified atmosphere of 95% air and 5% CO2. For the experiments, the cells were seeded in 6-well plates. After 24 hours, the cells were treated with different concentrations of the various compounds.
(§2) Five cancer cell lines, Rat C6 giloma cells, Human breast cancer MCF-7 cells, Human glioma Hs683 cells, Human glioblastoma 05-MG cells, and Human lung cancer A549 cells, were cultured in Dulbecco's modified Eagle's medium (DMEM; Gibco) containing 10% fetal bovine serum (FBS) and 1% penicillin/streptomycin, and were kept at 37° C. in a humidified atmosphere of 95% air and 5% CO2. Human breast cancer. MDA-MB-231 cells were cultured in L-15 medium (Gibco) containing 10% fetal bovine serum (FBS), 1% penicillin/streptomycin, and 2 mM glutamine, and were maintained at 37° C. in a humidified atmosphere of 95% air and 0% CO2. For these experiments, the cells were seeded in 6-well plates or a 60-mm dish. After 24 hours, the cells were treated with different concentrations of the various compounds. […] Human glioblastoma 05-MG cells were treated with NBM-C-BCX-OS01 (1.0, 2.0, 4.0 μg/mL) and NBM-C-BMX-OS01 (1.0, 2.0, 4.0 μg/mL) for 72 hours (see FIG. 5(e)). […] The results were counted by a trypan blue exclusion assay (see FIG. 6(b)).

[3] = system: Human glioma Hs683 cells; test: Inhibition of cancer cell growth; format: cell-based; conditions: Hs683 cells, 1.25, 2.5, 5.0 μg/mL, 72 hrs (FIG. 5(d))
Protocol: Their results were counted by a trypan blue exclusion assay (see FIG. 8(e)).
as §2

[4] = system: acetyl-Histone H3, acetyl-Histone H4, acetyl-tubulin, p21, CTPS, Gelsolin, Hsp90, acetyl-Hsp90 in Human glioma Hs683 cells; test: Immunoblotting of histones and HDAC associated proteins; format: cell-based; conditions: Hs683 cells, 1.0, 2.0, 4.0 μg/mL
Protocol: Human glioma Hs683 cells were seeded at 5×10^5 cells in a 60-mm dish or 1×10^6 cells in a 100-mm dish. After 24 hours, Human glioma Hs683 cells were treated with different doses of NBM-C-BCX-OS01, NBM-C-BMX-OS01 (1.0, 2.0, 4.0 μg/mL), and vorinostat (SAHA, 5 μM) for 72 hours. Lysates of Hs683 cells were prepared for the immunoblotting of acetyl-Histone H3 (Cell Signaling Technology, Inc.), acetyl-Histone H4 (Upstate), acetyl-tubulin (Sigma Chemical Co.), p21 (BD Pharmingen Technology, Inc.), CTPS (ABNOVA TAIWAN Corporation), Gelsolin (Sigma Chemical Co.), Hsp90 (Cell Signaling Technology, Inc.), acetyl-Hsp90 (ROCKLAND, Inc.) and actin (Sigma Chemical Co.). Proteins were detected by chemiluminescence (ECL, Amersham). […] SAHA was used as a positive control and β-actin as an internal control (see FIG. 7(b)).

[5] = system: Human glioblastoma 05-MG cells; test: Inhibition of cancer cell growth; format: cell-based; conditions: 05-MG cells, 1.0, 2.0, 4.0 μg/mL, 72 hrs (FIG. 5(e))
Protocol: as §2

[6] = system: Human lung cancer A549 cells; test: Inhibition of cancer cell growth; format: cell-based; conditions: 72 hrs, NBM-C-BX-OS01 7.5, others 2.5, 5.0, 7.5 μg/mL (FIG. 5(b))
Protocol: as §1, §2

[7] = system: human breast cancer MDA-MB-231 cells; test: Inhibition of cancer cell growth and change of morphology; format: cell-based; conditions: MDA-MB-231 cells
Protocol: Their results were counted by a trypan blue exclusion assay (see FIG. 9(f)).
as §2

[8] = system: Human glioma Hs683 cells; test: Cell cycle analysis by flow cytometry (propidium iodide); format: cell-based; conditions: Hs683 cells, 1.0, 2.0, 4.0 μg/mL, 72 hrs (FIG. 6(e))
Protocol: Human lung cancer A549 cells, Human glioma Hs683 cells and Human glioblastoma 05-MG cells were seeded 1×10^6 cells in a 100-mm dish. After 24 hours of incubation in DMEM+10% BSA, Human lung cancer A549 cells were treated with NBM-HB-OS01 (2.5, 5.0, 7.5, 10.0 μg/mL) for 24 hours and were treated with NBM-C-BCX-OS01 (2.5, 5.0, 7.5 μg/mL) and NBM-C-BMX-OS01 (2.5, 5, 7.5 μg/mL) for 72 hours. Human glioblastoma 05-MG cells were treated with NBM-C-BCX-OS01 (1.0, 2.0, 4.0 μg/mL) and NBM-C-BMX-OS01 (1.0, 2.0, 4.0 μg/mL) for 72 hours. Human glioma Hs683 cells were treated with NBM-C-BCX-OS01 (1.0, 2.0, 4.0 μg/mL). For cell cycle analysis, cells were fixed in 80% ethanol for 1 hour (or overnight) at −20° C. and then incubated with 2 μg/mL RNase A for 30 minutes at 37° C. Cells were stained with propidium iodide ([…] PI) in PBS and analyzed using a Becton Dickinson flow cytometer, BD FACScan and CellQuest acquisition and analysis programs. […] Human glioma Hs683 cells were treated with NBM-C-BCX-OS01 (1.0, 2.0, 4.0 μg/mL) for 72 hours.

[9] = system: cyclin D1 in MCF-7 breast cancer cells; conditions: cited from earlier work
[10] = system: transgenic mouse model of spinal and bulbar muscular atrophy; conditions: cited from earlier work

SMILES: CN(C)c1ccc(C(=O)NCCCCCCC(=O)NO)cc1 [M344]
- up-regulation of SMN2 protein expression [1]: up to 7 fold

SMILES: COc1ccc(/C=C\C(=O)NO)c(OCc2ccc(Cl)cc2)c1CC=C(C)C [NBM-C-BCX-OS01, (Z)-2-(4-Chlorobenzoxy)-3-prenyl-4-methoxy-N-hydroxycinamide]
- inhibition of cell growth ([2]; 24 hrs, NBM-C-BA-OS01 5 μg/mL, others 2.5, 5.0 μg/mL (FIG. 5(a))): inhibited the cell growth
- inhibition of cell growth, similar to dose-dependent A549 result ([2]; various concentrations, 24 hrs (FIG. 5(c))): the results were similar
- cell growth inhibition [3]: Cell growth inhibition was observed
- CTPS protein level ([4]; 72 hrs (FIG. 7(a))): decreased in a dose-dependent manner
- Hsp90 protein level ([4]; 72 hrs (FIG. 7(a))): decreased in a dose-dependent manner
- induction (increase) of acetylated Hsp90 protein ([4]; 72 hrs (FIG. 7(a))): detected in a dose-dependent manner; also recorded: observed in a dose-dependent manner
- induction (increase) of gelsolin protein ([4]; 72 hrs (FIG. 7(a))): detected in a dose-dependent manner; also recorded: observed in a dose-dependent manner
- expression of acetylated Histone H3 ([4]; 72 hrs (FIG. 7(b))): significantly increased in a dose-dependent manner; also recorded: induced in a dose-dependent manner
- expression of acetylated Histone H4 ([4]; 72 hrs (FIG. 7(b))): significantly increased in a dose-dependent manner; also recorded: induced in a dose-dependent manner
- expression of acetylated tubulin ([4]; 72 hrs (FIG. 7(b))): significantly increased in a dose-dependent manner; also recorded: induced in a dose-dependent manner
- expression of p21 ([4]; 72 hrs (FIG. 7(b))): significantly increased in a dose-dependent manner; also recorded: induced in a dose-dependent manner
- cell growth inhibition [5]: Cell growth inhibition was observed
- cell growth inhibition [6]: induced A549 cells growth inhibition in a dose-dependent manner; also recorded: induced A549 cell growth inhibition in dose-dependent amounts
- change of cell morphology ([7]; 72 hours (FIG. 6(a))): changed the morphology of the cells
- inhibition of cell growth ([7]; various concentrations, 72 hrs (FIG. 6(a))): inhibition of the cell growth of human breast cancer MDA-MB-231 cells was observed; also recorded: inhibited the growth
- growth arrest in cell cycle analysis [8]: arrested the growth; also recorded: could arrest the growth

SMILES: CC(/C=C/C(=O)NO)=C\[C@@H](C)C(=O)c1ccc(N(C)C)cc1 [Trichostatin A]
- ubiquitin-dependent cyclin D1 degradation [9]: induce ubiquitin-dependent cyclin D1 degradation

SMILES: CCCC(=O)[O-].[Na+] [sodium butyrate]
- effect on phenotypic expression [10]: ameliorates phenotypic expression

Source: patent US8318801B2, “Cinnamic compounds and derivatives therefrom for the inhibition of histone deacetylase” (Naturewise Biotech & Medicals Corporation, priority 2009, dated 2012)
